Measured values: PubChem BioAssay (NCI)
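A five-concentration, 48-hour dose response in 96-well plates underlies each endpoint, interpolated linearly between surrounding concentrations. At the GI50, growth is halved. TGI: concentration producing complete growth inhibition.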

Experiments:
Assay in all cases: NCI anticancer screen, dose series, 48 h
[1] = tested on: SF-295 CNS
[2] = tested on: CCRF-CEM leukemia
[3] = tested on: M14 melanoma
[4] = tested on: SK-MEL-5 melanoma
[5] = tested on: UACC-257 melanoma
[6] = tested on: K-562 leukemia
[7] = tested on: LOX IMVI melanoma
[8] = tested on: NCI/ADR-RES ovarian
[9] = tested on: RPMI-8226 leukemia
[10] = tested on: HL-60(TB) leukemia
[11] = tested on: HS 578T breast
[12] = tested on: ACHN renal
[13] = tested on: MCF7 breast
[14] = tested on: T-47D breast
[15] = tested on: SNB-19 CNS
[16] = tested on: 786-0 renal
[17] = tested on: NCI-H23 lung
[18] = tested on: DU-145 prostate
[19] = tested on: SNB-75 CNS
[20] = tested on: NCI-H522 lung
[21] = tested on: UACC-62 melanoma
[22] = tested on: HCT-15 colon
[23] = tested on: PC-3 prostate
[24] = tested on: EKVX NSCLC
[25] = tested on: OVCAR-8 ovarian
[26] = tested on: COLO 205 colon
[27] = tested on: OVCAR-4 ovarian
[28] = tested on: SN12C renal
[29] = tested on: MDA-MB-435
[30] = tested on: MALME-3M melanoma
[31] = tested on: TK-10 renal
[32] = tested on: SK-OV-3 ovarian
[33] = tested on: MDA-MB-231 breast
[34] = tested on: HOP-62 NSCLC
[35] = tested on: KM12 colon
[36] = tested on: OVCAR-5 ovarian
[37] = tested on: HCT-116 colon
[38] = tested on: OVCAR-3 ovarian
[39] = tested on: CAKI-1 renal
[40] = tested on: MOLT-4 leukemia
[41] = tested on: HT29 colon
[42] = tested on: SK-MEL-28 melanoma
[43] = tested on: HOP-92 NSCLC
[44] = tested on: A498 renal
[45] = tested on: SW-620 colon
[46] = tested on: UO-31 renal
[47] = tested on: SF-539 CNS
[48] = tested on: SF-268 CNS
[49] = tested on: SR leukemia
[50] = tested on: BT-549 breast
[51] = tested on: IGROV1 ovarian
[52] = tested on: SK-MEL-2 melanoma
[53] = tested on: RXF 393 renal
[54] = tested on: NCI-H226 lung
[55] = tested on: NCI-H460 lung
[56] = tested on: HCC-2998 colon
[57] = tested on: U251 CNS
[58] = tested on: A549 NSCLC

COC(=O)c1c2c(c[n+]([O-])c1C)C(=O)C=C(NCc1ccccc1)C2=O
GI50 [1]: 154 nM
TGI [1]: 298 nM
GI50 [2]: 264 nM
TGI [2]: 955 nM
GI50 [3]: 161 nM
TGI [3]: 315 nM
GI50 [4]: 140 nM
TGI [4]: 274 nM
GI50 [5]: 148 nM
TGI [5]: 323 nM
GI50 [6]: 192 nM
TGI [6]: 1860 nM
GI50 [7]: 175 nM
TGI [7]: 451 nM
GI50 [8]: 237 nM
TGI [8]: 798 nM
GI50 [9]: 258 nM
TGI [9]: 843 nM
GI50 [10]: 174 nM
TGI [10]: 445 nM
GI50 [11]: 263 nM
TGI [11]: 710 nM
GI50 [12]: 210 nM
TGI [12]: 579 nM
GI50 [13]: 149 nM
TGI [13]: 361 nM
GI50 [14]: 197 nM
TGI [14]: 653 nM
GI50 [15]: 281 nM
TGI [15]: 954 nM
GI50 [16]: 295 nM
TGI [16]: 1220 nM
GI50 [17]: 169 nM
TGI [17]: 421 nM
GI50 [18]: 172 nM
TGI [18]: 316 nM
GI50 [19]: 166 nM
TGI [19]: 309 nM
GI50 [20]: 189 nM
TGI [20]: 509 nM
GI50 [21]: 154 nM
TGI [21]: 304 nM
GI50 [22]: 151 nM
TGI [22]: 350 nM
GI50 [23]: 208 nM
TGI [23]: 996 nM
GI50 [24]: 205 nM
TGI [24]: 507 nM
GI50 [25]: 220 nM
TGI [25]: 787 nM
GI50 [26]: 151 nM
TGI [26]: 372 nM
GI50 [27]: 90.4 nM
TGI [27]: 225 nM
GI50 [28]: 156 nM
TGI [28]: 298 nM
GI50 [29]: 125 nM
TGI [29]: 255 nM
GI50 [30]: 42.3 nM
TGI [30]: 153 nM
GI50 [31]: 690 nM
TGI [31]: 2090 nM
GI50 [32]: 425 nM
TGI [32]: 1600 nM
GI50 [33]: 200 nM
TGI [33]: 618 nM
GI50 [34]: 209 nM
TGI [34]: 590 nM
GI50 [35]: 222 nM
TGI [35]: 785 nM
GI50 [36]: 192 nM
TGI [36]: 390 nM
GI50 [37]: 189 nM
TGI [37]: 586 nM
GI50 [38]: 41.3 nM
TGI [38]: 209 nM
GI50 [39]: 289 nM
TGI [39]: 1120 nM
GI50 [40]: 203 nM
TGI [40]: 497 nM
GI50 [41]: 211 nM
TGI [41]: 1420 nM
GI50 [42]: 245 nM
TGI [42]: 554 nM
GI50 [43]: 287 nM
TGI [43]: 822 nM
GI50 [44]: 210 nM
TGI [44]: 1050 nM
GI50 [45]: 258 nM
TGI [45]: 727 nM
GI50 [46]: 183 nM
TGI [46]: 477 nM
GI50 [47]: 182 nM
TGI [47]: 353 nM
GI50 [48]: 263 nM
TGI [48]: 929 nM
GI50 [49]: 204 nM
GI50 [50]: 169 nM
TGI [50]: 319 nM
GI50 [51]: 167 nM
TGI [51]: 389 nM
GI50 [52]: 171 nM
TGI [52]: 363 nM
GI50 [53]: 197 nM
TGI [53]: 521 nM
GI50 [54]: 338 nM
TGI [54]: 1490 nM
GI50 [55]: 215 nM
TGI [55]: 476 nM
GI50 [56]: 213 nM
TGI [56]: 492 nM
GI50 [57]: 255 nM
TGI [57]: 787 nM
GI50 [58]: 227 nM
TGI [58]: 564 nM
